Data from patent publication US20080161232A1, “C5a Receptor Antagonist” (JERINI AG, priority 2005, published 2008).
Positions of bridges follow the written chain, without caps; N, C: chain ends. Non-standard residues stand in square brackets, D forms with d. Residues, ends and D or L forms follow the SMILES beside them. Phe(3-Cl) = N[C@@H](Cc1cccc(Cl)c1)C(=O)O; Phe(3-Me) = Cc1cccc(C[C@H](N)C(=O)O)c1; Phe(4-F) = N[C@@H](Cc1ccc(F)cc1)C(=O)O; 1Nal = N[C@@H](Cc1cccc2ccccc12)C(=O)O; His(τ-Me) = Cn1cnc(C[C@H](N)C(=O)O)c1; Bta = N[C@@H](Cc1csc2ccccc12)C(=O)O; Hyp = O=C(O)[C@@H]1C[C@@H](O)CN1; d(hLeu) = CC(C)CC[C@@H](N)C(=O)O; Tic = O=C(O)[C@@H]1Cc2ccccc2CN1; Cha = N[C@@H](CC1CCCCC1)C(=O)O; NMeN = CN[C@@H](CC(N)=O)C(=O)O; dCha = N[C@H](CC1CCCCC1)C(=O)O; Chg = N[C@H](C(=O)O)C1CCCCC1; dNle = CCCC[C@@H](N)C(=O)O; Pip = O=C(O)[C@@H]1CCCCN1; Nle = CCCC[C@H](N)C(=O)O; Orn = NCCC[C@H](N)C(=O)O

What follows are molecules tested against T1, human C5aR(CD88) (Homo sapiens, UniProt P21730) (assay: Determination of the IC50 value in an enzyme release assay (functional assay, antagonistic activity)). Settings: antagonistic activity; IC50 group in enzyme release assay, RBL cells expressing human C5aR(CD88); read-out: activity (group).
T1 construct: expressed in transfected cells; host or cells: rat basophilic leukemia cells (RBL)
T1 sequence (P21730 1-350): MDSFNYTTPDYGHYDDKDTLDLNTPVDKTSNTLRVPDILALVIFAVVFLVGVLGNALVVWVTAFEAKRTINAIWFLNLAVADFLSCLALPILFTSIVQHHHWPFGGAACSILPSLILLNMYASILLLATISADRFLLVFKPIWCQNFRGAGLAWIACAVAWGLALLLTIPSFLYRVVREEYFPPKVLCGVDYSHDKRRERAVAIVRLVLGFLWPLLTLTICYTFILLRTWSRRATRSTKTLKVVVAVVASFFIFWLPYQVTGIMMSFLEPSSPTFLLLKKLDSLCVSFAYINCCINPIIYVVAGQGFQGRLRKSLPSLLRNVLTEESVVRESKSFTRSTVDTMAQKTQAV
Assay type: cell-based

| SMILES | IC50 |
| --- | --- |
| CC(=O)N[C@@H](Cc1ccccc1)C(=O)N[C@H]1CCCNC(=O)[C@H](Cc2ccccc2)NC(=O)[C@H](Cc2c[nH]c3ccccc23)NC(=O)[C@@H](CC2CCCCC2)NC(=O)[C@@H]2C[C@@H](OC(C)=O)CN2C1=O [Compound 176, Ac-Phe-[Orn-HyA-cha-Trp-Phe]] (Ac-F[Orn][Hyp](Ac)[dCha]WF; lactam 2-C) | 50 to 200 nM |
| CC(=O)N[C@@H](Cc1ccccc1)C(=O)N[C@H]1CCCNC(=O)[C@H](Cc2ccccc2)NC(=O)[C@H](Cc2csc3ccccc23)NC(=O)[C@@H](CCC(C)C)NC(=O)[C@@H]2C[C@@H](O)CN2C1=O [Compound 177, Ac-Phe-[Orn-Hyp-hle-Bta-Phe]] (Ac-F[Orn][Hyp][d(hLeu)][Bta]F; lactam 2-C) | 50 to 200 nM |
| CC(=O)N[C@@H](Cc1ccccc1)C(=O)N[C@H]1CCCNC(=O)[C@H](Cc2ccccc2)NC(=O)[C@H](Cc2cccc(Cl)c2)NC(=O)[C@@H](CCC(C)C)NC(=O)[C@@H]2C[C@@H](O)CN2C1=O [Compound 178, Ac-Phe-[Orn-Hyp-hle-Mcf-Phe]] (Ac-F[Orn][Hyp][d(hLeu)][Phe(3-Cl)]F; lactam 2-C) | 50 to 200 nM |
| CCCC[C@@H]1NC(=O)[C@H](Cc2ccc(F)cc2)NC(=O)[C@@H](CCC(C)C)NC(=O)[C@@H]2C[C@@H](O)CN2C(=O)[C@@H](NC(=O)[C@H](Cc2ccccc2)NC(C)=O)CCCNC1=O [Compound 179, Ac-Phe-[Orn-Hyp-hle-Pff-Nle]] (Ac-F[Orn][Hyp][d(hLeu)][Phe(4-F)][Nle]; lactam 2-C) | 50 to 200 nM |
| CC(=O)N[C@@H](Cc1ccccc1)C(=O)N[C@H]1CCCNC(=O)[C@H](Cc2ccccc2)NC(=O)[C@H](Cc2ccc(F)cc2)NC(=O)[C@@H](CCC(C)C)NC(=O)[C@@H]2C[C@@H](O)CN2C1=O [Compound 180, Ac-Phe-[Orn-Hyp-hle-Pff-Phe]] (Ac-F[Orn][Hyp][d(hLeu)][Phe(4-F)]F; lactam 2-C) | 50 to 200 nM |
| CC(=O)N[C@@H](Cc1ccccc1)C(=O)N[C@H]1CCCNC(=O)[C@H](Cc2ccccc2)NC(=O)[C@H](Cc2c[nH]c3ccccc23)NC(=O)[C@@H](CCC(C)C)NC(=O)[C@@H]2C[C@@H](O)CN2C1=O [Compound 181, Ac-Phe-[Orn-Hyp-hle-Trp-Phe]] (Ac-F[Orn][Hyp][d(hLeu)]WF; lactam 2-C) | 20 to 50 nM |
| CCCC[C@@H]1NC(=O)[C@H](Cc2c[nH]c3ccccc23)NC(=O)[C@H](Cc2cccc(C)c2)NC(=O)[C@@H]2C[C@@H](O)CN2C(=O)[C@@H](NC(=O)[C@H](Cc2ccccc2)NC(C)=O)CCCNC1=O [Compound 182, Ac-Phe-[Orn-Hyp-Mmf-Trp-Nle]] (Ac-F[Orn][Hyp][Phe(3-Me)]W[Nle]; lactam 2-C) | 50 to 200 nM |
| CC(=O)N[C@@H](Cc1ccccc1)C(=O)N[C@H]1CCCNC(=O)[C@H](Cc2ccccc2)NC(=O)[C@H](Cc2c[nH]c3ccccc23)NC(=O)[C@H](Cc2cccc(C)c2)NC(=O)[C@@H]2C[C@@H](O)CN2C1=O [Compound 183, Ac-Phe-[Orn-Hyp-Mmf-Trp-Phe]] (Ac-F[Orn][Hyp][Phe(3-Me)]WF; lactam 2-C) | 50 to 200 nM |
| CCCC[C@@H]1NC(=O)[C@H](Cc2c[nH]c3ccccc23)NC(=O)[C@@H](CC2CCCCC2)NC(=O)[C@H](CC(N)=O)N(C)C(=O)[C@@H](NC(=O)[C@H](Cc2ccccc2)NC(C)=O)CCCNC1=O [Compound 184, Ac-Phe-[Orn-NMD-cha-Trp-Nle]] (Ac-F[Orn][NMeN][dCha]W[Nle]; lactam 2-C) | 50 to 200 nM |
| CC(=O)N[C@@H](Cc1ccccc1)C(=O)N[C@H]1CCCNC(=O)[C@H](Cc2ccccc2)NC(=O)[C@H](Cc2csc3ccccc23)NC(=O)[C@@H](CCC(C)C)NC(=O)[C@@H]2CCCCN2C1=O [Compound 185, Ac-Phe-[Orn-Pip-hle-Bta-Phe]] (Ac-F[Orn][Pip][d(hLeu)][Bta]F; lactam 2-C) | 50 to 200 nM |
| CCCC[C@@H]1NC(=O)[C@H](Cc2ccc(F)cc2)NC(=O)[C@@H](CC2CCCCC2)NC(=O)[C@@H]2CCCN2C(=O)[C@@H](NC(=O)[C@H](Cc2ccccc2)NC(C)=O)CCCNC1=O [Compound 186, Ac-Phe-[Orn-Pro-cha-Pff-Nle]] (Ac-F[Orn]P[dCha][Phe(4-F)][Nle]; lactam 2-C) | 50 to 200 nM |
| CC(=O)N[C@@H](Cc1ccccc1)C(=O)N[C@H]1CCCNC(=O)[C@H](Cc2ccccc2)NC(=O)[C@H](Cc2ccc(F)cc2)NC(=O)[C@@H](CC2CCCCC2)NC(=O)[C@@H]2CCCN2C1=O [Compound 187, Ac-Phe-[Orn-Pro-cha-Pff-Phe]] (Ac-F[Orn]P[dCha][Phe(4-F)]F; lactam 2-C) | 50 to 200 nM |
| CC(=O)N[C@@H](Cc1ccccc1)C(=O)N[C@H]1CCCNC(=O)[C@H](Cc2cccc3ccccc23)NC(=O)[C@H](Cc2c[nH]c3ccccc23)NC(=O)[C@@H](CC2CCCCC2)NC(=O)[C@@H]2CCCN2C1=O [Compound 188, Ac-Phe-[Orn-Pro-cha-Trp-1Ni]] (Ac-F[Orn]P[dCha]W[1Nal]; lactam 2-C) | 50 to 200 nM |
| CC(=O)N[C@@H](Cc1ccccc1)C(=O)N[C@H]1CCCNC(=O)[C@H](CC2CCCCC2)NC(=O)[C@H](Cc2c[nH]c3ccccc23)NC(=O)[C@@H](CC2CCCCC2)NC(=O)[C@@H]2CCCN2C1=O [Compound 189, Ac-Phe-[Orn-Pro-cha-Trp-Cha]] (Ac-F[Orn]P[dCha]W[Cha]; lactam 2-C) | 50 to 200 nM |
| CC(=O)N[C@@H](Cc1ccccc1)C(=O)N[C@H]1CCCNC(=O)[C@H](C2CCCCC2)NC(=O)[C@H](Cc2c[nH]c3ccccc23)NC(=O)[C@@H](CC2CCCCC2)NC(=O)[C@@H]2CCCN2C1=O [Compound 190, Ac-Phe-[Orn-Pro-cha-Trp-Chg]] (Ac-F[Orn]P[dCha]W[Chg]; lactam 2-C) | 50 to 200 nM |
| CC(=O)N[C@@H](Cc1ccccc1)C(=O)N[C@H]1CCCNC(=O)[C@H](Cc2cn(C)cn2)NC(=O)[C@H](Cc2c[nH]c3ccccc23)NC(=O)[C@@H](CC2CCCCC2)NC(=O)[C@@H]2CCCN2C1=O [Compound 192, Ac-Phe-[Orn-Pro-cha-Trp-Ecr]] (Ac-F[Orn]P[dCha]W[His(τ-Me)]; lactam 2-C) | 20 to 50 nM |
| CC(=O)N[C@@H](Cc1ccccc1)C(=O)N[C@H]1CCCNC(=O)[C@H](CC(C)C)NC(=O)[C@H](Cc2c[nH]c3ccccc23)NC(=O)[C@@H](CC2CCCCC2)NC(=O)[C@@H]2CCCN2C1=O [Compound 193, Ac-Phe-[Orn-Pro-cha-Trp-Leu]] (Ac-F[Orn]P[dCha]WL; lactam 2-C) | 50 to 200 nM |
| CCCC[C@H]1NC(=O)[C@H](Cc2c[nH]c3ccccc23)NC(=O)[C@@H](CC2CCCCC2)NC(=O)[C@@H]2CCCN2C(=O)[C@@H](NC(=O)[C@H](Cc2ccccc2)NC(C)=O)CCCNC1=O [Compound 194, Ac-Phe-[Orn-Pro-cha-Trp-nle]] (Ac-F[Orn]P[dCha]W[dNle]; lactam 2-C) | 50 to 200 nM |
| CCCC[C@@H]1NC(=O)[C@H](Cc2csc3ccccc23)NC(=O)[C@@H](CCC(C)C)NC(=O)[C@@H]2CCCN2C(=O)[C@@H](NC(=O)[C@H](Cc2ccccc2)NC(C)=O)CCCNC1=O [Compound 196, Ac-Phe-[Orn-Pro-hle-Bta-Nle]] (Ac-F[Orn]P[d(hLeu)][Bta][Nle]; lactam 2-C) | 50 to 200 nM |
| CC(=O)N[C@@H](Cc1ccccc1)C(=O)N[C@H]1CCCNC(=O)[C@H](Cc2ccccc2)NC(=O)[C@H](Cc2csc3ccccc23)NC(=O)[C@@H](CCC(C)C)NC(=O)[C@@H]2CCCN2C1=O [Compound 197, Ac-Phe-[Orn-Pro-hle-Bta-Phe]] (Ac-F[Orn]P[d(hLeu)][Bta]F; lactam 2-C) | 50 to 200 nM |
| CC(=O)N[C@@H](Cc1ccccc1)C(=O)N[C@H]1CCCNC(=O)[C@H](Cc2ccccc2)NC(=O)[C@H](Cc2ccc(F)cc2)NC(=O)[C@@H](CCC(C)C)NC(=O)[C@@H]2CCCN2C1=O [Compound 198, Ac-Phe-[Orn-Pro-hle-Pff-Phe]] (Ac-F[Orn]P[d(hLeu)][Phe(4-F)]F; lactam 2-C) | 50 to 200 nM |
| CCCC[C@@H]1NC(=O)[C@H](Cc2c[nH]c3ccccc23)NC(=O)[C@@H](CCC(C)C)NC(=O)[C@@H]2CCCN2C(=O)[C@@H](NC(=O)[C@H](Cc2ccccc2)NC(C)=O)CCCNC1=O [Compound 199, Ac-Phe-[Orn-Pro-hle-Trp-Nle]] (Ac-F[Orn]P[d(hLeu)]W[Nle]; lactam 2-C) | 20 to 50 nM |
| CCCC[C@@H]1NC(=O)[C@H](Cc2c[nH]c3ccccc23)NC(=O)[C@@H](CC2CCCCC2)NC(=O)[C@H](CO)NC(=O)[C@@H](NC(=O)[C@H](Cc2ccccc2)NC(C)=O)CCCNC1=O [Compound 200, Ac-Phe-[Orn-Ser-cha-Trp-Nle]] (Ac-F[Orn]S[dCha]W[Nle]; lactam 2-C) | 50 to 200 nM |
| CCCC[C@@H]1NC(=O)[C@H](Cc2c[nH]c3ccccc23)NC(=O)[C@@H](CCC(C)C)NC(=O)[C@H](CO)NC(=O)[C@@H](NC(=O)[C@H](Cc2ccccc2)NC(C)=O)CCCNC1=O [Compound 202, Ac-Phe-[Orn-Ser-hle-Trp-Nle]] (Ac-F[Orn]S[d(hLeu)]W[Nle]; lactam 2-C) | 50 to 200 nM |
| CCCC[C@@H]1NC(=O)[C@H](Cc2c[nH]c3ccccc23)NC(=O)[C@@H](CC2CCCCC2)NC(=O)[C@H]([C@@H](C)O)NC(=O)[C@@H](NC(=O)[C@H](Cc2ccccc2)NC(C)=O)CCCNC1=O [Compound 203, Ac-Phe-[Orn-Thr-cha-Trp-Nle]] (Ac-F[Orn]T[dCha]W[Nle]; lactam 2-C) | 50 to 200 nM |
| CCCC[C@@H]1NC(=O)[C@H](Cc2c[nH]c3ccccc23)NC(=O)[C@@H](CC2CCCCC2)NC(=O)[C@@H]2Cc3ccccc3CN2C(=O)[C@@H](NC(=O)[C@H](Cc2ccccc2)NC(C)=O)CCCNC1=O [Compound 205, Ac-Phe-[Orn-Tic-cha-Trp-Nle]] (Ac-F[Orn][Tic][dCha]W[Nle]; lactam 2-C) | 50 to 200 nM |
